Experimental data as given in patent US20090023731A1, “SOLUBLE EPOXIDE HYDROLASE INHIBITORS” (Arete Therapeutics, Inc., priority 2007, published 2009).

system: soluble epoxide hydrolase (sEH); assay: Fluorescent assay for mouse and human soluble epoxide hydrolase (CMNPC substrate); type: biochemical; details: inhibitor conc. 50 nM
Method: Recombinant mouse sEH (MsEH) and human sEH (HsEH) were produced in a baculovirus expression system as previously reported. […] The expressed proteins were purified from cell lysate by affinity chromatography. […] Protein concentration was quantified using the Pierce BCA assay using bovine serum albumin as the calibrating standard.
The IC50s for each inhibitor were according to the following procedure:
Bis/Tris HCl 25 mM pH 7.0 containing 0.1 mg/mL of BSA (buffer A) CMNPC at 0.25 mM in DMSO.
Mother solution of enzyme in buffer A (Mouse sEH at 6 μg/mL and Human sEH at 5 μg/mL). Inhibitor dissolved in DMSO at the appropriate concentration.
In a black 96 well plate, fill all the wells with 150 μL of buffer A.
Add 2 μL of DMSO in well A2 and A3, and then add 2 μL of inhibitor solution in A1 and A4 through A12.
Add […] of buffer A in row A, then mix several time and transfer […] to row B. Repeat this operation up to row H. The […] removed from row H is discarded.
Add […] of buffer A in column 1 and 2, then add […] of enzyme solution to column 3 to 12.
Incubate the plate for 5 minutes in the plate reader at 30° C.
During incubation prepare the working solution of substrate by mixing 3.68 mL of buffer A (4×0.920 mL) with 266 μL (2×133 μL) of substrate solution).
The velocities are used to analyze and calculate the IC50s.

Row | SMILES | % Inh [%]
1 | O=C(Nc1ccc(Cl)cc1)Nc1cccc(OCCCN2CCOCC2)c1 [Compound 15, 1-(4-Chloro-phenyl)-3-[3-(3-morpholin-4-yl-propoxy)-phenyl]-urea] | 94
2 | O=C(Nc1ccc(OC(F)(F)F)cc1)Nc1ccc(F)c(OCCCN2CCOCC2)c1 [Compound 33, 1-[4-Fluoro-3-(3-morpholin-4-yl-propoxy)-phenyl]-3-(4-trifluoromethoxy-phenyl)-urea] | 83
3 | O=C(Nc1cccc(OCCCN2CCOCC2)c1)NC12CC3CC(CC(C3)C1)C2 [Compound 47, 1-Adamantan-1-yl-3-[3-(3-morpholin-4-yl-propoxy)-phenyl]-urea] | 99
4 | O=C(Nc1ccc(C(F)(F)F)cc1)Nc1cccc(OCCCN2CCOCC2)c1 [Compound 9, 1-[3-(3-Morpholin-4-yl-propoxy)-phenyl]-3-(4-trifluoromethyl-phenyl)-urea] | 82
5 | O=C(Nc1ccc(OCCCN2CCOCC2)cc1)Nc1ccc(OC(F)(F)F)cc1 [Compound 34, 1-[4-(3-Morpholin-4-yl-propoxy)-phenyl]-3-(4-trifluoromethoxy-phenyl)-urea] | 91
6 | O=C(NC1CCCC(OCCCN2CCOCC2)C1)NC12CC3CC(CC(C3)C1)C2 (stereo not drawn) [Compound 48, 1-Adamantan-1-yl-3-[3-(3-morpholin-4-yl-propoxy)-cyclohexyl]-urea] | 94
7 | O=C(Nc1ccc(C(F)(F)F)cc1)Nc1ccc(F)c(OCCCN2CCOCC2)c1 [Compound 32, 1-[4-Fluoro-3-(3-morpholin-4-yl-propoxy)-phenyl]-3-(4-trifluoromethyl-phenyl)-urea] | 87
8 | O=C(CC12CC3CC(CC(C3)C1)C2)Nc1cccc(OCCCN2CCOCC2)c1 [Compound 43, 2-Adamantan-1-yl-N-[3-(3-morpholin-4-yl-propoxy)-phenyl]-acetamide] | 93
9 | O=C(Nc1ccc(OC(F)(F)F)cc1)Nc1cccc(OCCCN2CCOCC2)c1 [Compound 28, 1-[3-(3-Morpholin-4-yl-propoxy)-phenyl]-3-(4-trifluoromethoxy-phenyl)-urea] | 90
10 | O=C(Nc1ccc(OCCCN2CCOCC2)cc1)Nc1ccc(C(F)(F)F)cc1 [Compound 21, 1-[4-(3-Morpholin-4-yl-propoxy)-phenyl]-3-(4-trifluoromethyl-phenyl)-urea] | 96
11 | O=C(CC1CCCCC1)Nc1cccc(OCCCN2CCOCC2)c1 [Compound 51, 2-Cyclohexyl-N-[3-(3-morpholin-4-yl-propoxy)-phenyl]-acetamide] | 61
12 | O=C(Nc1ccc(Cl)cc1)Nc1ccc(OCCCN2CCOCC2)cc1 [Compound 26, 1-(4-Chloro-phenyl)-3-[4-(3-morpholin-4-yl-propoxy)-phenyl]-urea] | 88
13 | O=C(Nc1ccc(F)c(OCCCN2CCOCC2)c1)NC1CCCCC1 [Compound 54, 1-Cyclohexyl-3-[4-fluoro-3-(3-morpholin-4-yl-propoxy)-phenyl]-urea] | 83

same assay, conditions: inhibitor conc. 200 nM

Row | SMILES | % Inh [%]
14 | O=C(NCCc1ccc(OCc2ccccc2)cc1)NCCC12CC3CC(CC(C3)C1)C2 [Compound 72, 1-(4-(benzyloxy)phenethyl)-3-(adamantylethyl)urea] | 89

same assay, conditions: inhibitor conc. 500 nM

Row | SMILES | % Inh [%]
15 | O=C(Nc1ccccc1)Nc1cccc(OCCCN2CCOCC2)c1 [Compound 1, 1-[3-(3-Morpholin-4-yl-propoxy)-phenyl]-3-phenyl-urea] | 62
16 | O=C(Cc1ccc(C(F)(F)F)cc1)Nc1cccc(OCCCN2CCOCC2)c1 [Compound 24, N-[3-(3-Morpholin-4-yl-propoxy)-phenyl]-2-(4-trifluoromethyl-phenyl)-acetamide] | 88
17 | O=C(Nc1ccc(Cl)cc1)Nc1ccc(F)c(OCCCN2CCOCC2)c1 [Compound 30, 1-(4-Chloro-phenyl)-3-[4-fluoro-3-(3-morpholin-4-yl-propoxy)-phenyl]-urea] | 96
18 | O=C(CC12CC3CC(CC(C3)C1)C2)NC1CCC(OCCCN2CCOCC2)CC1 (stereo not drawn) [Compound 50, 2-Adamantan-1-yl-N-[4-(3-morpholin-4-yl-propoxy)-cyclohexyl]-acetamide] | 85
19 | O=C(Nc1ccccc1)Nc1ccc(F)c(OCCCN2CCOCC2)c1 [Compound 29, 1-[4-Fluoro-3-(3-morpholin-4-yl-propoxy)-phenyl]-3-phenyl-urea] | 73
20 | O=C(CC12CC3CC(CC(C3)C1)C2)Nc1ccc(F)c(OCCCN2CCOCC2)c1 [Compound 52, 2-Adamantan-1-yl-N-[4-fluoro-3-(3-morpholin-4-yl-propoxy)-phenyl]-acetamide] | 93
21 | O=C(Nc1ccc(F)cc1)Nc1ccc(F)c(OCCCN2CCOCC2)c1 [Compound 31, 1-[4-Fluoro-3-(3-morpholin-4-yl-propoxy)-phenyl]-3-(4-fluoro-phenyl)-urea] | 78
22 | O=C(Nc1cccc(OCCCN2CCOCC2)c1)Nc1ccc2c(c1)OCO2 [Compound 8, 1-Benzo[1,3]dioxol-5-yl-3-[3-(3-morpholin-4-yl-propoxy)-phenyl]-urea] | 91
23 | O=C(Nc1ccc(OCCN2CCOCC2)cc1)Nc1cccc(OCCCN2CCOCC2)c1 [Compound 18, 1-[4-(2-Morpholin-4-yl-ethoxy)-phenyl]-3-[3-(3-morpholin-4-yl-propoxy)-phenyl]-urea] | 66
24 | O=C(Cc1ccc(Cl)cc1)Nc1cccc(OCCCN2CCOCC2)c1 [Compound 22, 2-(4-Chloro-phenyl)-N-[3-(3-morpholin-4-yl-propoxy)-phenyl]-acetamide] | 73
25 | O=C(Nc1ccccc1)Nc1ccc(OCCCN2CCOCC2)cc1 [Compound 14, 1-[4-(3-Morpholin-4-yl-propoxy)-phenyl]-3-phenyl-urea] | 90

same assay, conditions: inhibitor conc. 2000 nM

Row | SMILES | % Inh [%]
26 | O=C(Nc1cccc(Oc2cccc(C(=O)O)c2)c1)NC12CC3CC(CC(C3)C1)C2 [Compound 70, 3-(3-(3-(adamantyl)ureido)phenoxy)benzoicacid] | 95
27 | O=C(Nc1ccc(C(F)(F)F)cc1)Nc1cccc(Oc2cccc(C(=O)O)c2)c1 [Compound 71, 3-(3-(3-(4-(trifluoromethyl)phenyl)ureido)phenoxy)benzoicacid] | 98
28 | O=C(Nc1ccc(Oc2ccc(C(=O)O)cc2)cc1)Nc1ccc(OC(F)(F)F)cc1 [Compound 64, 4-(4-(3-(4-(trifluoromethoxy)phenyl)ureido)phenoxy)benzoic acid] | 100
29 | O=C(Nc1ccc(C(F)(F)F)cc1)N[C@H]1CC[C@H](Oc2ccc(C(=O)O)cc2)CC1 [Compound 75] | 95
30 | O=C(Nc1ccc(OC(F)(F)F)cc1)N[C@H]1CC[C@H](Oc2ccc(C(=O)O)cc2)CC1 [Compound 74, 4-((1r,4r)-4-(3-(4-(trifluoromethoxy)phenyl)ureido)cyclohexyloxy)benzoic acid] | 100
31 | O=C(Nc1ccc(C(F)(F)F)cc1)Nc1cccc(Oc2ccc(C(=O)O)cc2)c1 [Compound 69, 4-(3-(3-(4-(trifluoromethyl)phenyl)ureido)phenoxy)benzoicacid] | 100

same assay, conditions: inhibitor conc. 5000 nM

Row | SMILES | % Inh [%]
32 | O=C(Nc1cccc(OCCCN2CCOCC2)c1)Nc1c(F)c(F)c(F)c(F)c1F [Compound 7, 1-[3-(3-Morpholin-4-yl-propoxy)-phenyl]-3-pentafluorophenyl-urea] | 87
33 | CC(C)(C)NC(=O)Nc1cccc(OCCCN2CCOCC2)c1 [Compound 42, 1-tert-Butyl-3-[3-(3-morpholin-4-yl-propoxy)-phenyl]-urea] | 79
34 | CN(C)c1cccc(NC(=O)Nc2cccc(OCCCN3CCOCC3)c2)c1 [Compound 17, 1-(3-Dimethylamino-phenyl)-3-[3-(3-morpholin-4-yl-propoxy)-phenyl]-urea] | 95
35 | CC(C)(C)CC(=O)Nc1cccc(OCCCN2CCOCC2)c1 [Compound 44, 3,3-Dimethyl-N-[3-(3-morpholin-4-yl-propoxy)-phenyl]-butyramide] | 70
36 | O=C(Cc1ccccc1)Nc1ccc(OCCCN2CCOCC2)cc1 [Compound 25, N-[4-(3-Morpholin-4-yl-propoxy)-phenyl]-2-phenyl-acetamide] | 80
37 | O=C(Cc1ccc2c(c1)OCO2)Nc1cccc(OCCCN2CCOCC2)c1 [Compound 12, 2-Benzo[1,3]dioxol-5-yl-N-[3-(3-morpholin-4-yl-propoxy)-phenyl]-acetamide] | 87
38 | O=C(Cc1ccc(F)cc1)Nc1cccc(OCCCN2CCOCC2)c1 [Compound 11, 2-(4-Fluoro-phenyl)-N-[3-(3-morpholin-4-yl-propoxy)-phenyl]-acetamide] | 85
39 | O=C(Nc1cccc(OCCCN2CCOCC2)c1)C12CC3CC(CC(C3)C1)C2 [Compound 55, Adamantane-1-carboxylicacid [3-(3-morpholin-4-yl-propoxy)-phenyl]-amide] | 90

same assay, conditions: inhibitor conc. 50000 nM

Row | SMILES | % Inh [%]
40 | O=C(Nc1cccnc1)Nc1cccc(OCCCN2CCOCC2)c1 [Compound 16, 1-[3-(3-Morpholin-4-yl-propoxy)-phenyl]-3-pyridin-3-yl-urea] | 95
41 | O=C(Cc1cccnc1)Nc1cccc(OCCCN2CCOCC2)c1 [Compound 13, N-[3-(3-Morpholin-4-yl-propoxy)-phenyl]-2-pyridin-3-yl-acetamide] | 75
42 | O=C(Nc1cccc(OCCCN2CCOCC2)c1)Nc1c(Cl)cccc1Cl [Compound 3, 1-(2,6-Dichloro-phenyl)-3-[3-(3-morpholin-4-yl-propoxy)-phenyl]-urea] | 90
